Measured values as given in patent US8318898B2, “Synthetic peptides for use as inhibitors of neurotransmitter secretion and as inducers of cellular relaxation” (Universite de Lausanne, priority 2005, dated 2012).
Read-outs that look alike come from different tables or passages of the source. Ends that are not written are not given here.

Tests used:
[1] = system: PC12 cells; experiment: Inhibition of [3H]norepinephrine neurosecretion by PC12 cells; assay type: cell-based, rat; conditions: for inhibition of neurotransmitter-evoked secretion: concentration not given, peptide alone; for level of inhibition maintained over the 48 hour period: cultured with PC12 cells for 48 hours in the presence or absence of serum, up to 90%; for inhibition of secretion, stability test: 100 μM
Protocol: Using the neurosecretion assay described above, peptides fused to the TAT-PTD (L-TAT) were tested for inhibition of neurotransmitters and compared to use of L-TAT alone (SEQ ID NO: 3). In vitro screening for synthetic peptides capable of efficiently and selectively blocking neurotransmitter release in the PC12 cell line grown under defined conditions was performed.
PC12 cells were washed with DMEM-WM (Dulbecco's Modified Eagle Medium (GIBCO cat. no. 31968) completed with 25 units of penicillin and streptomycin each) and loaded for 1-2 h with [^3H] norepinephrine (NE; 0.5 μCi/ml) in DMEM-CM (DMEM-WM complemented with 6% horse serum and 6% fetal calf serum). Cells were washed for 1 h with DMEM-WM, and then washed 2 times at 5-minute intervals. Basal release was determined by a 15-minutes incubation with CaSB-glucose 5 mM K^+ (CaSB-glucose: 140 mM NaCl, 5 mM KCl, 2 mM CaCl2, 11 mM glucose, [pH 7.4]). The peptides were added to the cells at defined concentrations after loading with NE but before induction of secretion. Cells were depolarized with 85 mM K^+ (CaSB-glucose with Na^+ reduced accordingly) for 15 minutes to determine stimulated release. Superfusate (1 ml) was removed to tubes. Adherent cells were solubilized in CaSB-glucose-0.1% Triton (1 ml/well). The quantities of released and non-released radiolabeled neurotransmitter were determined by liquid scintillation counting of cleared superfusates and cell lysates, respectively. Total uptake was calculated by addition of released and retained radioactivity, and the percentage release was as calculated (released counts/total uptake counts)×100. Results were also expressed as percent inhibition of neurosecretion.

[2] = system: PC12-ES cells; experiment: [3H]NE evoked secretion by PC12-ES cells with secretagogues; assay type: cell-based, rat; conditions: potassium 80 mM, nicotine 0.1 mM or carbachol 1 mM, 15 minutes
Excerpt: Neurotransmitter Secretion by PC12-ES. PC12 cells offer a number of advantages for studies of regulated secretion. Exocytosis of large dense-core vesicles (LDCVs) in these cells can be easily assayed for the release of radioactive norepinephrine ([^3H]NE) from pre-labeled cells [Greene et al., Brain Res, 129:247-63, 1977; Greene et al., J Neurochem, 30:579-86, 1978; Greene et al., J. Neurochem. 30:549-55, 1978; Greene et al., Brain Res. 138:521-8; 1977; Greene et al., Nature 268:349-51, 1977]. The neurosecretion assay was carried out by measuring [^3H]NE evoked secretion with PC12-ES cells.
PC12-ES cells were either untreated, treated with STSP (100 nM), or treated with NGF (50 ng/ml) for 48 h before the loading with [^3H]NE and prepared for release measurements. […] Media were collected, and released [^3H]NE as well as the total cell content were determined by liquid scintillation counting. Basal secretion was measured in calcium secretion buffer (CaSB) without secretagogue or CaSB supplemented with 11 mM glucose (CaSB-Glucose). The data are expressed in Table 1 as the percent secretion: [amount released/(amount released+amount in cell lysate)]×100. Net secretion is secretagogue-stimulated release minus basal release.

[3] = molecular target: Recombinant furin (Homo sapiens, UniProt P09958); experiment: biochemical; assay type: biochemical
Protocol: To determine if the peptides described herein have an effect on the activity of PC enzymes which are involved in a condition or disorder such as fibrosis, the effect of the peptides on furin activity in vitro was measured as percent inhibition of cleavage of the furin substrate fluorogenic t-butyloxycarbonyl (Boc)-RVRR-7-amino-4-methylcoumarin (MCA).
All in vitro enzyme studies were performed at room temperature in a final volume of 50-100 μl in 96-well flat-bottom black plates. The buffer consisted of 100 mM HEPES, 1 mM CaCl2, 0.5% TritonX-100, and 1 mM 2-β-mercaptoethanol pH 7.5. Assays were performed using Boc-RVRR-MCA as fluorogenic substrate at 100 μM. Recombinant furin (0.8 U of activity) was incubated with Boc-RVRR-MCA in the presence or absence of varying concentrations of synthetic peptides D-9Rac/am (SEQ ID NO. 15), L-Bel1 (SEQ ID NO. 3), or L-9K (SEQ ID NO. 6). One unit of activity is defined as the amount of furin that can release 1 μmol of MCA from the fluorogenic Boc-RVRR-MCA per min at 30° C. The release of highly fluorescent 7-amino 4-methyl coumarin (MCA) from the Boc-RVRR-MCA was monitored by a spectrofluorometer instrument at excitation and emission wavelengths of 370 nm/460 nm. […]

[4] = molecular target: T1, furin (Rattus norvegicus, UniProt P23377); assay type: biochemical
T1 construct: Furin activity was constitutively detected in PC12-ES cells; endogenous in cells; host or cells: PC12-ES cells (lysate)
Protocol: To monitor the intracellular furin activity, 80% confluent PC12-ES cells were washed twice with ice-cold phosphate-buffered saline (PBS1×) by centrifugation at 800×g for 5 minutes at 4° C., resuspended in 100 mM HEPES, 1 mM CaCl2, 0.5% TritonX-100, and 1 mM 2-β-mercaptoethanol, pH 7.5, sonicated 6 times at 4° C. for 10 seconds, and then centrifuged at 8000×g for 20 minutes at 4° C. The protein concentration in the samples was determined using a bicinchonic acid protein assay kit (Pierce Chemical Co.).
Intracellular furin activity was measured with a furin-specific fluorogenic substrate, t-butyloxycarbonyl (Boc)-[…]-7-amino-4-methylcoumarin (MCA). Briefly, the cell lysate (20 μg-60 μg of protein) prepared as described above was incubated with 100 μM Boc-RVRR-MCA in a 96-well flat-bottom black plate for at least 6 hours at room temperature and fluorescence measured by excitation at 365 nm and emission at 450 nm.

[5] = cited from earlier work

Recombinant furin, sequence (P09958 108-794): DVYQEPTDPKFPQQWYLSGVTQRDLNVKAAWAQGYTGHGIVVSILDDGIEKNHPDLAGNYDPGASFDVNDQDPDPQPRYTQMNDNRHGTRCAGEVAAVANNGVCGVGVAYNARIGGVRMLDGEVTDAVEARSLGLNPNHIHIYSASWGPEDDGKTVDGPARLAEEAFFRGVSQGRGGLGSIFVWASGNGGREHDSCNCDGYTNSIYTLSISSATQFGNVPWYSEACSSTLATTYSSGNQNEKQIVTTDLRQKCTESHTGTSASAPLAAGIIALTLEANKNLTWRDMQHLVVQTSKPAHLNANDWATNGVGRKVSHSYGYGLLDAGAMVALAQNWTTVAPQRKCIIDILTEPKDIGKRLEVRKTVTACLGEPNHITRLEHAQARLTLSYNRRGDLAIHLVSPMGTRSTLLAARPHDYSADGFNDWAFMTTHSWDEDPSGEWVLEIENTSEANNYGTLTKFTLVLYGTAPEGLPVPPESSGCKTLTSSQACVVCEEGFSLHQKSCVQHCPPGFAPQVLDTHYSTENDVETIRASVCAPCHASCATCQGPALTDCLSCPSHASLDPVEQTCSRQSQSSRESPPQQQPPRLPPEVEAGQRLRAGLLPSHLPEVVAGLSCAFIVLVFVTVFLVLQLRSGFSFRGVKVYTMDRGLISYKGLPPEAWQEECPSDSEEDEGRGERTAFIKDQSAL
T1 sequence (P23377 108-793): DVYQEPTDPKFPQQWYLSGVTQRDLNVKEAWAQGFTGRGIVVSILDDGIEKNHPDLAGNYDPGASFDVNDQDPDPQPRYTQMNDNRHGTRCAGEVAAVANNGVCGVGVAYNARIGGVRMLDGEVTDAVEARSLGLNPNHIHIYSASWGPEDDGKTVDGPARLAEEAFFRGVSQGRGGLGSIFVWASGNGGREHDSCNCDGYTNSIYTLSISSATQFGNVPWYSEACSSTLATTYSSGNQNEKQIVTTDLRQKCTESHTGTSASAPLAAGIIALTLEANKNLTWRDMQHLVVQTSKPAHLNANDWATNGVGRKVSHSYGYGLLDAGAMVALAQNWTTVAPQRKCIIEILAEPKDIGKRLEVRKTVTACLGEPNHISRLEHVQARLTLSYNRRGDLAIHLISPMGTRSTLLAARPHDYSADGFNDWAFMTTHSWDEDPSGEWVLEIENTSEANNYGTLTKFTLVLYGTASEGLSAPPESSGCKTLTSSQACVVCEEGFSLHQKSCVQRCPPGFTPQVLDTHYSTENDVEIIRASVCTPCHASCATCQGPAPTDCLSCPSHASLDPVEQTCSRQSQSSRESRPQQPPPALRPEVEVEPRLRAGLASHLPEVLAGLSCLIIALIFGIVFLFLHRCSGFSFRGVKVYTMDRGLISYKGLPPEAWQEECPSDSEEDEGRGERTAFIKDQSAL

Compound: L-Tat-ESUP-A: SEQ ID NO: 1; ESUP-A fused to the TAT-PTD (GYGRKKRRQRRRGSNKTRIDEANQRATKMLGSG; Synthetic peptide L-Tat-ESUP-A)
- dose dependence of inhibition of neurosecretion [1]: dose dependent inhibition
- inhibition of PC12 neurotransmitter secretion ([1]; peptide 10 μM): 30%
- inhibition of PC12 neurotransmitter secretion ([1]; peptide 50 μM): 40%
- inhibition of PC12 neurotransmitter secretion ([1]; peptide 100 μM): 50%
- inhibition of PC12 neurotransmitter secretion ([1]; peptide 250 μM): 70%

Compound: GRRRRRRRRRGYG [Peptide 9Rrev-D]
- inhibition of neurotransmitter-evoked secretion [1]: approximately 57%
- level of inhibition maintained over the 48 hour period [1]: approximately 80%

Compound: C[N+](C)(C)CCOC(N)=O [Carbachol]
- percent secretion of [3H]NE ([2]; CaSB-Glucose, NGF differentiated cells): 32.4%
- percent secretion of [3H]NE ([2]; CaSB-Glucose, STSP differentiated cells): 57%
- percent secretion of [3H]NE ([2]; CaSB-Glucose, non-differentiated cells): 37.24%
- percent secretion of [3H]NE ([2]; CaSB, NGF differentiated cells): 27%
- percent secretion of [3H]NE ([2]; CaSB, STSP differentiated cells): 46.5%
- percent secretion of [3H]NE ([2]; CaSB, non-differentiated cells): 44.7%

Compound: GYGRRRRRRRRRG [Peptide 9R-D]
- inhibition of neurotransmitter-evoked secretion [1]: approximately 65%
- level of inhibition maintained over the 48 hour period [1]: approximately 80%

Compound: NH2-SNKTRIDEANQRATKMLGSG-COOH (H-SNKTRIDEANQRATKMLGSG-OH) [ESUP-A, reference compound]
- inhibition of neurotransmitter secretion (in words) [1]: only minimal inhibition
- inhibition of PC12 neurotransmitter secretion ([1]; peptide 100 μM): 20%

Compound: 9R-L: SEQ ID NO: 5 (GYGRRRRRRRRRG; Synthetic peptide 9R-L)
- inhibition of neurotransmitter-evoked secretion [1]: approximately 70%
- level of inhibition maintained over the 48 hour period [1]: approximately 80%

Compound: MRPEDpep: SEQ ID NO: 7 (KKKKKFSFKKPFKLSGLSFKRNRK; Synthetic peptide MRPED)
- dose dependence of inhibition of neurosecretion [1]: dose dependent inhibition
- inhibition of secretion, stability test ([1]; 0 hours): >20%
- inhibition of secretion, stability test ([1]; 1 hour): 23%
- inhibition of secretion, stability test ([1]; 24 hours): 15%
- inhibition of secretion, stability test ([1]; No Serum): 17%

Compound: O=C(O)CN(CCOCCOCCN(CC(=O)O)CC(=O)O)CC(=O)O [EGTA, reference compound]
- inhibition of in vitro furin activity (in words) ([3]; Boc-RVRR-MCA 100 μM as substrate): effectively suppressed
- inhibition of intracellular furin activity (in words) ([4]; EDTA 50 mM, EGTA 50 mM, Dec-RVKR-CMK 50 μM): inhibited

Compound: L-Tat-3D-MRP: SEQ ID NO: 10 (GYGRKKRRQRRRGKKKKKFDFKKPFKLDGLDFKRNRK; Synthetic peptide L-Tat-3DMRPED)
- dose dependence of inhibition of neurosecretion [1]: dose dependent inhibition

Compound: L-Tat 49-86: SEQ ID NO: 4 (GRKKRRQRRRAHQNSQTHQASLSKQPTSQPRGDPTGKEG; Synthetic peptide L-Tat 49-86)
- inhibition of secretion, stability test ([1]; 0 hours): <20%
- inhibition of secretion, stability test ([1]; 1 hour): >10%
- inhibition of secretion, stability test ([1]; 24 hours): 26%
- inhibition of secretion, stability test ([1]; 48 hours): 25%
- inhibition of secretion, stability test ([1]; No Serum): 50%

Compound: 3D-MRP: SEQ ID NO: 8 (KKKKKFDFKKPFKLDGLDFKRNRK; Synthetic peptide 3DMRPED) [Peptide 3D-MRP]
- dose dependence of inhibition of neurosecretion [1]: dose dependent inhibition

Compound: O=C(O)CN(CCN(CC(=O)O)CC(=O)O)CC(=O)O [EDTA, reference compound]
- inhibition of in vitro furin activity (in words) [3]: effectively suppressed
- inhibition of intracellular furin activity (in words) [4]: inhibited

Compound: 9R-MRP: SEQ ID NO: 22; fusion peptide (GYGRRRRRRRRRGKKKKKKFSFKKPFKLSGLSFKRNRK; Synthetic peptide 9R-MRP)
- inhibition of secretion ([1]; 50 μM (mixture: 50 μM each)): approximately 70%

Compound: 9R-L-Ac-am: SEQ ID NO: 11 (Ac-GYGRRRRRRRRRG-NH2) [Peptide 9R-L-Ac-am]
- inhibition of neurotransmitter-evoked secretion [1]: approximately 67%
- level of inhibition maintained over the 48 hour period [1]: approximately 80%

Compound: Pal-Lys-Thr-Thr-Lys-Ser (Pal-KTTKS) [palmitoyl pentapeptide]
- improving the effects of photo-aging ([5]; 3 ppm versus retinol 700 ppm): as effective as retinol
- side effects ([5]; in vivo): not associated with any side effects

Compound: L-Tat-MRP: SEQ ID NO: 9 (GYGRKKRRQRRRGKKKKKFSFKKPFKLSGLSFKRNRK; Synthetic peptide L-Tat-MRPED)
- dose dependence of inhibition of neurosecretion [1]: dose dependent inhibition
